Data on 1 compound can be found in patent US20220096515A1, “Methods and Formulations for Preventing Neurological or Psychiatric Disorders” (Huntington Medical Research Institutes, priority 2020, published 2022).

Common to all, as to format: in vivo, mouse
Series [1] relates to Gabrb3^ECKO mice. As to the kind of experiment: Y maze spontaneous alternation test. Particulars: vs saline-treated Gabrb3^ECKO mice. The protocol: (§1) Behavioral Experiments: Mice were housed in our animal facility with a 12-hour light cycle with ad libitum access to food and water. Offspring stayed with their mothers until weaning at PND 21 after which males and females were separated. Before all behavioral testing, mice were acclimated to the testing room for 1 hour. Behavioral assays were performed according to established protocols referenced here: self-grooming, light-dark box, tail suspension test, Y-maze, open field locomotion activity, three chamber social interaction test and nest building with nestlets and with shredded paper. Both males and females were used for all behavioral assays. Experimenters scoring behaviors were blinded to the genotypes and treatment. Sample sizes for each assay are noted in figure legends.
Anxiety was next assessed with the classic light-dark transition test which triggers a struggle between the desires to explore a novel environment versus natural aversion of a brightly illuminated open space. […] The Y maze spontaneous alternation test was used to evaluate for spatial learning and memory in the three groups of mice. After introduction to the center of the maze, the mice were given free access to all three arms. […] The total number of arm entries and the sequence of entries are recorded in order to calculate the percentage of alternation. […]

In series [2] the test system is Gabrb3^ECKO mice. As to the kind of experiment: Self-grooming. Conditions: after prenatal treatment. The protocol: as §1
Therefore, behavioral tests were performed to screen for stress, anxiety, locomotion, cognition, and sociability in saline-treated Gabrb3^fl/fl mice, saline-treated Gabrb3^ECKO mice and NAD^+-treated Gabrb3^ECKO mice. Mice from saline and NAD^+-treated groups were housed individually in cages containing wood chip bedding and two nestlets (pressed cotton) (FIGS. 16A-16D) or more naturalistic material like shredded paper strips (FIGS. 16E-16H). […] This rescue of home cage social behavior was a robust indication of well-being in NAD^+-treated Gabrb3^ECKO mice. […]

Series [3] relates to wildtype CD1 mice. As to the kind of experiment: Increasing dose regimen of NAD+ in wildtype CD1 mice, H&E of MGE. Conditions: i.p. As to the method: Histology, immunohistochemistry, and microscopic analysis: Paraffin immunohistochemistry (IHC) was performed on embryonic brains only while frozen section IHC was used on both embryonic and adult brains. Briefly, for paraffin IHC-E18 brains were fixed in zinc fixative (BD Biosciences PharMingen) for 24 h and processed for paraffin histology. Histological stainings with hematoxylin (Vector Laboratories) and eosin (Sigma) were performed on 8 μm coronal sections. Lectin histochemistry (with biotinylated isolectin B4, 1:50, Sigma) as well as IHC was performed on 20 μm sections. Primary antibodies used for IHC were as follows: anti-PHH3 (1:200, Millipore) and anti-NKX2.1, (1:50; Sigma) followed by secondary detection with AlexaFluor conjugates (Invitrogen). DAPI (Vector Laboratories) was used to label nuclei. For frozen section IHC, E18 and P90 brains were removed, fixed in 4% PFA for 24 hours, cryo-protected in sucrose gradient, embedded into OCT medium for frozen blocks; sectioned at 40 μm on a cryostat and immunostained with anti-GABA (1:80, Sigma) and anti -PROX1 (1:80, Millipore) antibodies. Twenty sections from each brain were used for IHC and histology experiments. Uniform penetration of antibodies or stains throughout the section was ascertained and quality of the staining in each digital section was examined. […]

Series [4] has as its system Gabrb3^fl/fl mice. As to the kind of experiment: Nesting and grooming behavior of NAD+ treated Gabrb3^fl/fl mice. Particulars: NAD+ vs saline treated Gabrb3^fl/fl mice. The protocol: Certain embodiments treat an individual at a dosage of approximately 10 mg/kg—for example, for a 60-70 kg human, a dosage would be approximately 600-700 mg. Some embodiments treat at a dosage higher than 10 mg/kg, such as up to 40 mg/kg. In many embodiments excess NAD+ may be removed from the body without deleterious effects. FIGS. 1D-1F illustrate exemplary data showing no deleterious effects from treating wildtype mice with NAD+. […] As excess NAD+ may be removed without significant effect to a treated individual, some embodiments treat a person prophylactically.
as §1

For series [5], the system named is Gabrb3^ECKO endothelial cells. Briefly: GABA secretion by ELISA after prenatal treatment. As to the method: ELISA: Periventricular endothelial cells were prepared after the NAD^+ treatment paradigm, or after the treatment with purinergic receptor agonists/antagonists, and seeded in 12 well culture plates at 0.1×10^6 cells/well. Supernatants from endothelial cell cultures were collected after 96 hours and stored at −80° C. for ELISA. GABA concentrations were quantitatively determined by competitive ELISA according to the manufacturers' protocol (GABA Research ELISA kits, Labor Diagnostica Nord, Germany), and absorbance was measured using a multiplate microplate fluorescence reader (Molecular Devices, CA) at 450 nm.
Endothelial cell derived GABA plays dual roles in the embryonic forebrain. It not only activates a positive feedback cycle in endothelial cells that stimulates angiogenesis, but also is an essential chemo-attractive and guidance cue for promotion of long-distance migration of GABAergic interneurons. […] Since, Gad1 and Gad2 were rescued in Gabrb3^ECKO endothelial cells by the prenatal NAD^+ treatment (FIGS. 10H-10I), it was tested whether GABA expression was rescued in Gabrb3^ECKO endothelial cells (FIGS. 11A-11C). Control endothelial cells typically form tight networks or clusters under normal culture conditions. […] Next, we investigated the secretion of GABA by ELISA in the three groups. […]
For orientation: An ELISA detects its analyte on a solid surface through an enzyme-linked reagent.

In the case of `NC(=O)c1ccc[n+]([C@@H]2O[C@H](COP(=O)([O-])OP(=O)(O)OC[C@H]3O[C@@H](n4cnc5c(N)ncnc54)[C@H](O)[C@@H]3O)[C@@H](O)[C@H]2O)c1` [NAD^+], the percentage alternations result in series [1] was “significant increase in percentage alternations”. The severe grooming behavior result in series [2] is “ameliorated”. Also, in series [3] (10 mg, 20 mg and 40 mg per mouse), the “cell cluster in MGE (H&E)” value is “a similar cell cluster in the MGE”. Further, in series [3], the lowest effective dose was 10 mg per mouse. In addition, in series [4], the grooming behavior entry was “no significant change in grooming behavior”. Moreover, in series [4] (untorn nestlet and shredded paper), the nesting behavior result is on record as “no significant difference in nesting behavior”. Further, the “GABA secretion (ELISA)” value in series [5] is listed as “rescued”.
